From paper PMC13181761, “New Analogs of the Compstatin Family of Clinical Complement Inhibitors with Low Picomolar Target Affinity” (Journal of Medicinal Chemistry, 2026) come the findings set out here.

SMILES strings stand for the structures. Values joined by “and” are separate entries in the source; they are usually repeats but may differ in a detail not shown here. Equal entries are not always repeated. Where two headings read alike, the source gives them in different places. Where a SMILES comes first, the peptide text is derived from it. Bridges are numbered along the chain shown (N, C = ends). [ ]: non-standard residue; d: D form. Trp(1-Me) = Cn1cc(C[C@H](N)C(=O)O)c2ccccc21; Asu = N[C@@H](CCCCCC(=O)O)C(=O)O; NMeI = CC[C@H](C)[C@H](NC)C(=O)O; Sar = CNCC(=O)O

What is called AUC(0-t) is the area under the concentration-time curve up to a stated or last time point. A high value points to high exposure. As usually defined, the Tmax is the time at which the peak concentration occurs. A word on the AUC(0-inf): it is the area under the concentration-time curve extrapolated to infinity. Broadly, the Cmax is the maximum level reached in the sampled fluid or tissue. As a reminder, the half-life is the time in which the quantity being followed falls by half. Higher therefore signals slow decline. As a reminder, the IC50 is the concentration that gives 50% inhibition.

The conditions of data set [1]: cynomolgus monkey, in vivo, 2 mg/kg.
For data set [2] the following is noted: cynomolgus monkey, in vivo, sc, 2 mg/kg.
The target in another data set is T1, human C3b (Homo sapiens, UniProt P01024).
T1 construct: purchased Complement Technology, Tyler, TX, USA
T1 sequence (P01024 23-667 limits assumed): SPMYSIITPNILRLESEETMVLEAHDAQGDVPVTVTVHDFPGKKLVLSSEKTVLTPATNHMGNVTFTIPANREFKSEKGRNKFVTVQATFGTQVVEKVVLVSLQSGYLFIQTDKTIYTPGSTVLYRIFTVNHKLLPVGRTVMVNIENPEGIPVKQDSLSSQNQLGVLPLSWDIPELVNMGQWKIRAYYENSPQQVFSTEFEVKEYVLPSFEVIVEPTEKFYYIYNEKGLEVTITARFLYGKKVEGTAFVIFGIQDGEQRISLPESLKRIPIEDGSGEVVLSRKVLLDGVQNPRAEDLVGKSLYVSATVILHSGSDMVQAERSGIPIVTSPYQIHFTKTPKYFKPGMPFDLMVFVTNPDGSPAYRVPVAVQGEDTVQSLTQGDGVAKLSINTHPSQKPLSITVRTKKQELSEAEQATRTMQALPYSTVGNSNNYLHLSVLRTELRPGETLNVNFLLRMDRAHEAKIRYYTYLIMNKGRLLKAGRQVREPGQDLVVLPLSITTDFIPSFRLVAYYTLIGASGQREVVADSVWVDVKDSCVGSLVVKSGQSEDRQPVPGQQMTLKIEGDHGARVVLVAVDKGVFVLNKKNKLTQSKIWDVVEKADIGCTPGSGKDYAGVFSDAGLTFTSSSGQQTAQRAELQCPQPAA
T1 sequence (P01024 749-1663 partner limits assumed): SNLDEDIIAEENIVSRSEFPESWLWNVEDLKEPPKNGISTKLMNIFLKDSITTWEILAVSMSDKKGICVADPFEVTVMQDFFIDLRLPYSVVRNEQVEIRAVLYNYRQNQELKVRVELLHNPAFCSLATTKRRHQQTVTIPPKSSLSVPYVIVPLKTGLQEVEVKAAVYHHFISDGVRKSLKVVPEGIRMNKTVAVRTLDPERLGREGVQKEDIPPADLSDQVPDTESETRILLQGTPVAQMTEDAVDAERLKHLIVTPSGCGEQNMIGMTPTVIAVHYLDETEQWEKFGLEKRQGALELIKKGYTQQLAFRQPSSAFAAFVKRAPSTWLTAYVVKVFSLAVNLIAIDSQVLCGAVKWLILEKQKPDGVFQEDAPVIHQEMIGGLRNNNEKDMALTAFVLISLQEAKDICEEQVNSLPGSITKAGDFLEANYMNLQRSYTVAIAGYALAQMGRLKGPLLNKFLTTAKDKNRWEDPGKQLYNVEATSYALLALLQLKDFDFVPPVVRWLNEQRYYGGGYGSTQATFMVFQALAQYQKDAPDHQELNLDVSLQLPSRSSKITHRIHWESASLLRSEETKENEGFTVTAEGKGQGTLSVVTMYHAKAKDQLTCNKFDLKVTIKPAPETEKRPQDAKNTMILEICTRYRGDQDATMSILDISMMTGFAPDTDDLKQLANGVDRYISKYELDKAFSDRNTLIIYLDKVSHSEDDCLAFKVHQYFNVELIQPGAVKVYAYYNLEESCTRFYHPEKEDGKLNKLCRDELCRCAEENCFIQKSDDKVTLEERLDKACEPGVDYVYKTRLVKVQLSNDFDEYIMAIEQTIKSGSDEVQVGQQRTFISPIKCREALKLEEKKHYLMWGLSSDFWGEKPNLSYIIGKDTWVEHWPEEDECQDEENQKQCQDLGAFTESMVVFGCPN
Kind of data set: SPR kinetic binding to immobilized human C3b. As for the experimental part:
Experiments were conducted at 25 °C in HBST buffer (10 mM HEPES, 150 mM NaCl, and 0.05% Tween-20, pH 7.4; XanTec bioanalytics). Human C3b (Complement Technology, Tyler, TX, USA) was immobilized via amine-reactive coupling. […] Individual peptide samples were injected for 120 s, followed by a 180 s dissociation phase. […] Signals from the reference cell and buffer blank injections were subtracted within each dilution series to correct for buffer effects and injection artifacts. Data were fitted to a Langmuir 1:1 binding model to calculate association (k a) and dissociation (k d) rate constants, and the equilibration constant K D is calculated based on the equation: K D = k d/k a. In the case of Cp40 derivatives and Cp60, a single-cycle approach was used for kinetic analysis by injecting 5 increasing concentrations of each compound (0.5-40 nM) consecutively without a regeneration period in between injections. Individual injections within a cycle were 120 s long with a 5 min dissociation phase between injections. […] Analog Cp40 was included in each experimental series as a reference and internal control. Signals from the reference cell and buffer blank injections were subtracted to correct for buffer effects and injection artifacts. Kinetic data were processed in BiaEvaluation (Cytiva) using single-cycle evaluation by global fitting each data set to a Langmuir 1:1 binding model. The reported kinetic parameters (Tables and ) indicate the mean values and standard deviations of three independent experiments. SPR sensorgrams are provided in the Supporting Information.
A general note: In SPR one partner is held on a chip, and binding of the other changes the refractive index at the surface.

Data set [3] relates to classical pathway complement activation. Nature of the data set: Classical pathway (CP) complement activation ELISA in normal human serum. The data set is classed as biochemical. Here is the method:
The inhibitory activity of selected peptides in preventing pathway-specific complement activation was evaluated using ELISA as previously described. All assays used normal human serum (NHS), pooled from five unrelated, anonymized healthy donors, obtained with informed consent according to the local ethics committee, and following the guidelines of the Declaration of Helsinki (Blutspendezentrum Basel, Switzerland). To assess classical pathway activity, flat-bottom MaxiSorp 96-well plates (Thermo Fisher) were coated overnight at room temperature with 33 μg/mL IgM (Sigma) in a 0.1 M sodium carbonate buffer. Plates were washed 5 times with phosphate-buffered saline (Dubleccòs, Bioconcept) supplemented with 0.05% Tween-20 (PBS-T). Serial dilutions of peptides were prepared in 1% (v/v) NHS using HBBT++ assay buffer (10 mM HEPES, 150 mM NaCl, pH 7.4, 0.5% BSA, 0.15 mM CaCl2, 0.5 mM MgCl2, 0.1% Tween-20), with samples diluted in 1% (v/v) NHS. Negative controls included each inhibitor in assay buffer alone, assay buffer only, and 1% (v/v) NHS with 10 mM EDTA. HBBT++ with 1% (v/v) pooled NHS served as the 100%-control. After incubating for 1 h at 37 °C and shaking at 700 rpm, plates were washed 5 times with PBS-T. Next, 100 μL of biotinylated monoclonal mouse antihuman TCC antibody (1:1000, Hycult, clone: aE11) to detect terminal complement complexes was added to each well, followed by 1 h incubation at room temperature while shaking. After another 5 washes with PBS-T, 100 μL of HRP-conjugated NeutrAvidin (1:10,000, Invitrogen) was added to each well and incubated for 20 min at room temperature while shaking. Plates were washed 5 more times with PBS-T before adding 100 μL of 1-Step Turbo TMB-ELISA solution (Thermo Scientific) to each well. The reaction was allowed to develop until a light blue color appeared, and then stopped with 100 μL of 2 M sulfuric acid. Colorimetric detection was performed at 450 nm by using a plate reader (Synergy HT, Biotek). All assays were conducted in triplicate and normalized against 100% (no inhibitor, 1% (v/v) serum in buffer) and 0% (1% (v/v) serum in EDTA buffer) controls. In the cases of Cp60 and Cp40, 5% (v/v) NHS was used instead of 1% (v/v) NHS in some assays. Inhibition curves were fitted using nonlinear regression to a normalized variable slope model in Prism (v9-10, GraphPad).
(In general: In an ELISA, binding on a coated surface is turned into a signal by an enzyme label.)

Setting [4] is: SPR, 1:1 Langmuir fit, average of 3 independent experiments, SD in brackets.
The mark [5] stands for this setting: SPR screening at 2 and 1 μM, series up to 16 μM, read-out: affinity hC3b (class symbol N.B./W.B.).

For the compound `CC[C@H](C)[C@H](NC(=O)[C@H](N)Cc1ccc(O)cc1)C(=O)N[C@H]1CSSC[C@@H](C(=O)N(C)[C@H](C(=O)N[C@@H](CCCCN)C(=O)N[C@@H](CCCCN)C(N)=O)[C@@H](C)CC)NC(=O)[C@H](CCCNC(=N)N)NC(=O)[C@H](Cc2c[nH]cn2)NC(=O)[C@H](C)NC(=O)CN(C)C(=O)[C@H](Cc2c[nH]c3ccccc23)NC(=O)[C@H](CC(=O)O)NC(=O)[C@H](CCC(N)=O)NC(=O)[C@H](Cc2cn(C)c3ccccc23)NC(=O)[C@H]([C@@H](C)CC)NC1=O` [Cp60-KK] (H-[dY]ICI[Trp(1-Me)]QDW[Sar]AHRC[NMeI]KK-NH2; disulfide 3-13), the AUC(0-t) in data set [1] (AUC0–120h, range over both animals) is 230 to 400 µM·h; in data set [1] (sc, AUC0-120h) it was 228 µM·h. For the same compound, in data set [1] (sc), the Tmax worked out at 2 h. In data set [1] (sc, AUC0-∞), this compound registered an AUC(0-inf) of 479 µM·h. In data set [1] (sc, Cmax), this compound came in with a Cmax of 7.52 µM. Also, the half-life in data set [1] (sc, t 1/2, terminal elimination phase, range over both animals) was 30 to 40 h; in data set [1] (sc, t½), 30.8 h. In data set [2], the AUC0-120h was 401 µM·h. Besides, the “AUC0-∞” value in data set [2] amounted to 250 µM·h.

`CC[C@H](C)[C@H](NC(=O)[C@H](N)Cc1ccc(O)cc1)C(=O)N[C@H]1CSSC[C@@H](C(=O)N(C)[C@H](C(N)=O)[C@@H](C)CC)NC(=O)[C@H](CCCNC(=N)N)NC(=O)[C@H](Cc2c[nH]cn2)NC(=O)[C@H](C)NC(=O)CN(C)C(=O)[C@H](Cc2c[nH]c3ccccc23)NC(=O)[C@H](CC(=O)O)NC(=O)[C@H](CCC(N)=O)NC(=O)[C@H](Cc2cn(C)c3ccccc23)NC(=O)[C@H]([C@@H](C)CC)NC1=O` [Cp60] (H-[dY]ICI[Trp(1-Me)]QDW[Sar]AHRC[NMeI]-NH2; disulfide 3-13): the “fold enhancement in binding affinity of Cp60 over Cp40” value at human C3b (K D ratio vs Cp40) was > 8 fold and 10 fold. Moreover, the “k a, affinity hC3b” value at human C3b (setting [4]) is listed as 17.6(1.4) 10^5 M^–1 s^–1. Moreover, the “k d, affinity hC3b” value is on record as 0.01 10^–2 s^–1 at human C3b (setting [4]) and 0.01(0.0) 10^–2 s^–1 at human C3b (SPR, 1:1 Langmuir fit, average of 3 independent experiments, SD in brackets, listed as Cp40 Ile). The “target residence (τ)” value on human C3b (SPR, C3b) is reported as “exceeding 100 min”. Further, the koff on human C3b (SPR, read-out: dissociation rate k d) came to 0.0001 s⁻¹. Besides, in data set [3] (CP ELISA, 1% human serum), the “CP inhibition compared with Cp40” value is on record as “did not show improved CP inhibition”. Moreover, the IC50 in data set [3] (CP ELISA, 5% human serum) was determined as 97 nM. Also, in data set [3] (IC50 ratio vs Cp40), the “fold enhancement in inhibitory potency of Cp60 over Cp40” value is on record as less than 2 fold.

For the compound `CC[C@H](C)[C@H](NC(C)=O)C(=O)N[C@H]1CSSC[C@@H](C(=O)N[C@H](C(N)=O)[C@@H](C)O)NC(=O)[C@H](CCCNC(=N)N)NC(=O)[C@H](Cc2c[nH]cn2)NC(=O)[C@H](C)NC(=O)CNC(=O)[C@H](Cc2c[nH]c3ccccc23)NC(=O)[C@H](CC(=O)O)NC(=O)[C@H](CCC(N)=O)NC(=O)[C@H](Cc2c[nH]c3ccccc23)NC(=O)[C@H](Cc2ccc(O)cc2)NC1=O` [Cp01 Val3Tyr] (Ac-ICYWQDWGAHRCT-NH2; disulfide 2-12), the Kd on human C3b (setting [5]) is greater than 2000 nM.

As for `CC[C@H](C)[C@H](NC(C)=O)C(=O)N[C@H]1CSSC[C@@H](C(=O)N[C@H](C(N)=O)[C@@H](C)O)NC(=O)[C@H](CCCNC(=N)N)NC(=O)[C@H](Cc2c[nH]cn2)NC(=O)[C@H](C)NC(=O)CNC(=O)[C@H](Cc2c[nH]c3ccccc23)NC(=O)[C@H](CCCCCC(=O)O)NC(=O)[C@H](CCC(N)=O)NC(=O)[C@H](Cc2c[nH]c3ccccc23)NC(=O)[C@H](C(C)C)NC1=O` [Cp01-Asp6Asu] (Ac-ICVWQ[Asu]WGAHRCT-NH2; disulfide 2-12), the “fold affinity drop / weaker affinity compared with Cp01” value on human C3b (K D ratio vs Cp01) came to 10 fold. Further, on human C3b (setting [4]), the “k a, affinity hC3b” value was 1.2(0.5) 10^5 M^–1 s^–1 and the “k d, affinity hC3b” value is listed as 23(4) 10^–2 s^–1.

`CC[C@H](C)[C@H](NC(C)=O)C(=O)N[C@H]1CSSC[C@@H](C(=O)N[C@H](C(N)=O)[C@@H](C)O)NC(=O)[C@H](CCCNC(=N)N)NC(=O)[C@H](Cc2c[nH]cn2)NC(=O)[C@H](C)NC(=O)[C@H](C)NC(=O)[C@H](Cc2c[nH]c3ccccc23)NC(=O)[C@H](CC(=O)O)NC(=O)[C@H](CCC(N)=O)NC(=O)[C@H](Cc2c[nH]c3ccccc23)NC(=O)[C@H](C(C)C)NC1=O` [Cp01-Gly8Ala] (Ac-ICVWQDWAAHRCT-NH2; disulfide 2-12): on human C3b (SPR), the “binding to C3b (result in words)” value is listed as “diminished target binding”. Moreover, at human C3b (setting [5]), the Kd was greater than 2000 nM.

In the case of `CC[C@H](C)[C@H](NC(C)=O)C(=O)N[C@H]1CSSC[C@@H](C(=O)N[C@H](C(N)=O)[C@@H](C)O)NC(=O)[C@H](CCCNC(=N)N)NC(=O)[C@H](Cc2c[nH]cn2)NC(=O)[C@H](C)NC(=O)CNC(=O)[C@H](Cc2c[nH]c3ccccc23)NC(=O)[C@H](CC(=O)O)NC(=O)[C@H](CCC(N)=O)NC(=O)[C@H](Cc2c[nH]c3ccccc23)NC(=O)C(C)(C)NC1=O` [Cp01-Val3Aib], the Kd at human C3b (setting [5]) was greater than 2000 nM.

Consider `CC[C@H](C)[C@H](NC(C)=O)C(=O)N[C@H]1CSSC[C@@H](C(=O)N[C@H](C(N)=O)[C@@H](C)O)NC(=O)[C@H](CCCNC(=N)N)NC(=O)[C@H](Cc2c[nH]cn2)NC(=O)[C@H](C)NC(=O)CNC(=O)[C@H](Cc2c[nH]c3ccccc23)NC(=O)[C@H](CO)NC(=O)[C@H](CCC(N)=O)NC(=O)[C@H](Cc2c[nH]c3ccccc23)NC(=O)[C@H](C(C)C)NC1=O` [Cp01-Asp6Ser] (Ac-ICVWQSWGAHRCT-NH2; disulfide 2-12), for which, at human C3b (setting [4]), the “k a, affinity hC3b” value is given as 3.1(0.9) 10^5 M^–1 s^–1 and the “k d, affinity hC3b” value is 18(3) 10^–2 s^–1. Moreover, the Kd at human C3b (SPR, 1:1 Langmuir fit, average of 3 independent experiments, SD in brackets, read-out: K D, affinity hC3b) is 609 nM.

`CC[C@H](C)[C@H](NC(C)=O)C(=O)N[C@H]1CSSC[C@@H](C(=O)N[C@H](C(N)=O)[C@@H](C)O)NC(=O)[C@H](CCCNC(=N)N)NC(=O)[C@H](Cc2c[nH]cn2)NC(=O)[C@H](C)NC(=O)[C@@H](C)NC(=O)[C@H](Cc2c[nH]c3ccccc23)NC(=O)[C@H](CC(=O)O)NC(=O)[C@H](CCC(N)=O)NC(=O)[C@H](Cc2c[nH]c3ccccc23)NC(=O)[C@H](C(C)C)NC1=O` [Cp01-Gly8dAla] (Ac-ICVWQDW[dA]AHRCT-NH2; disulfide 2-12): the “binding to C3b (result in words)” value at human C3b (SPR) was “diminished target binding”. Also, the Kd at human C3b (setting [5]) was greater than 16000 nM.
